Measurements reported in ChEMBL document CHEMBL3988442, “University of Dundee, Small-Polar-MMV Screening Library” (2021).

Target: ClpP1P2 (Mycobacterium tuberculosis (strain ATCC 25618 / H37Rv), UniProt P9WPC3+P9WPC5)
Assay: in vitro assay to detect presence of AMC directly proportional to the activity of ClpP1P2. GHDDI collaboration.
Assay type: functional

ClpP1P2, sequence (P9WPC5 whole entry): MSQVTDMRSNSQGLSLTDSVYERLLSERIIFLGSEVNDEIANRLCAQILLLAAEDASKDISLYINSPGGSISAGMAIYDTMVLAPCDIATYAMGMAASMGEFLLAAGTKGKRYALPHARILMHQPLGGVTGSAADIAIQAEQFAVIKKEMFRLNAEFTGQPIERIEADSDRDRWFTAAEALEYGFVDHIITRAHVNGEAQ
ClpP1P2, sequence (P9WPC3 whole entry): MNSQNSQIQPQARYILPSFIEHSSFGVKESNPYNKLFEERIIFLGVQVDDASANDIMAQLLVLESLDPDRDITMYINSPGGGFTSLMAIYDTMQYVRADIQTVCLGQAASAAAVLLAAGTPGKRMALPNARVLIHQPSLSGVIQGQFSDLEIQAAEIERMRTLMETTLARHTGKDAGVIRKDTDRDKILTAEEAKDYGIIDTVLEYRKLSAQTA

Which IC50 does the source give for `O=C(NC1CCC1)c1c2c(N3CCCC3)ncnc2n2ccccc12` here?
Its IC50 is over 100 µM.

Which IC50 does the source give for `N#Cc1c(C2CCOC2)cc(-c2ccc(N3CCCCC3)cc2)nc1N` (stereo not given) here?
The IC50 was over 100 µM.

`CC(Cn1cccn1)NC(=O)N1CCN(Cc2ccsc2)CC1` (stereo not given) was tested. Which IC50 did it give?
The IC50 was over 100 µM.

`COc1cccc(-c2ccnc3nc(N4CCCCC4)[nH]c(=O)c23)c1` was tested. Which IC50 did it give?
The IC50 was over 100 µM.

For `NC(=O)CC1CCCN(c2cncc(SCc3ccccc3)n2)C1` (stereo not given), which IC50 is on record?
The IC50 was over 100 µM.

How did the IC50 turn out when `Cc1cccc(CNc2cncc(-n3cccn3)n2)c1` was run?
The IC50 was over 100 µM.

How did the IC50 turn out when `CS(=O)(=O)N1CC[C@]2(O)CCN(c3cc(C#N)ccn3)C[C@@H]2C1` was run?
Its IC50 is over 100 µM.

`CN(C)C(=O)N1CCN(C(=O)c2ccn3cncc3c2)CC1` was tested. Which IC50 did it give?
Its IC50 is over 100 µM.

For `CN1CCCN(C(=O)c2cc(-c3cc[nH]n3)n3ccccc23)CC1`, which IC50 is on record?
Its IC50 is over 100 µM.

With `COc1ccc(-c2cc3cccn(CC(=O)N4CCOCC4)c-3n2)cc1` as the molecule, how does the IC50 read?
The IC50 was over 100 µM.

Which IC50 does the source give for `Cc1ccc(S(=O)(=O)N2CCCC3(CCCN3S(C)(=O)=O)C2)cc1F` (stereo not given) here?
The IC50 was over 100 µM.

With `CN(Cc1ccsc1)C(=O)Nc1ccc(N(C)C)nc1` as the molecule, how does the IC50 read?
The IC50 was over 100 µM.

How did the IC50 turn out when `CC(C)(C)OC(=O)NCCNC(=O)c1ccc(-c2ccco2)[nH]c1=O` was run?
The IC50 was over 100 µM.

Which IC50 does the source give for `CNC(=O)c1cc2c(nc1NCC1CC1)CCN(CC1CC1)CC2` here?
Its IC50 is over 100 µM.

How did the IC50 turn out when `N#Cc1cccc(N2CCCC3(CCC(=O)N(C4CCCC4)C3)C2)n1` (stereo not given) was run?
The IC50 was over 100 µM.

`Cc1nc(NCC2CC2)nc2c1COCC21CCN(C(=O)C(C)(C)C)C1` (stereo not given) was tested. Which IC50 did it give?
Its IC50 is over 100 µM.

For `CCCn1[nH]cc/c1=N\C(=O)CN1CCn2c(nnc2C2CC2)C1`, which IC50 is on record?
Its IC50 is over 100 µM.

For `O=C(O)C1CN(c2cncc(Cc3ccccc3)n2)C1`, which IC50 is on record?
The IC50 was over 100 µM.

For `Cc1nc(-c2cc(C(=O)NCCN3CCOCC3)c3ccccn23)cs1`, which IC50 is on record?
Its IC50 is over 100 µM.

For `Oc1ccc(C2Nc3ccccc3C3=NCCCN32)cc1` (stereo not given), which IC50 is on record?
Its IC50 is over 100 µM.

With `CNC(=O)c1cc2c(nc1NCC1CC1)CCN(c1ccncn1)CC2` as the molecule, how does the IC50 read?
Its IC50 is over 100 µM.

How did the IC50 turn out when `CC1CN(C(=O)CN(Cc2ccccc2)C2CC2)CCO1` (stereo not given) was run?
The IC50 was over 100 µM.

With `Cn1ccc2c(-c3nccc(N)n3)ccnc21` as the molecule, how does the IC50 read?
The IC50 was over 100 µM.

For `COc1cccc2ccc(N3CCC(O)(c4ccc(C)cn4)CC3)nc12`, which IC50 is on record?
Its IC50 is over 100 µM.

For `Cc1cccc2nc(CN3CCCC3Cn3cccn3)cn12` (stereo not given), which IC50 is on record?
Its IC50 is over 100 µM.

For `CCOc1ccc2[nH]c(=O)c(CN3CCC(O)CC3)cc2c1`, which IC50 is on record?
Its IC50 is over 100 µM.

Which IC50 does the source give for `CC(C)Nc1nc2c(c(NC3CC3)n1)CN(C(=O)c1ccsc1)CC2` here?
Its IC50 is over 100 µM.

`O=C(NCc1nc2cc(F)ccc2[nH]1)c1ccc[nH]1` was tested. Which IC50 did it give?
The IC50 was over 100 µM.

For `COc1cc2c(cc1CCC(=O)O)CCC2`, which IC50 is on record?
The IC50 was over 100 µM.

For `Cc1ncc(CN2CCc3nc4cc(C(C)(C)C)nn4c(O)c3C2)n1C`, which IC50 is on record?
The IC50 was over 100 µM.

How did the IC50 turn out when `Cc1nc(-c2nc(C(=O)NC3CC3)c3ccccn23)cn1C(C)C` was run?
Its IC50 is over 100 µM.

`Cc1nc(C)n(CC2CCCN2CCC(=O)N2CCCCC2)n1` (stereo not given) was tested. Which IC50 did it give?
The IC50 was over 100 µM.

With `O=S1(=O)CCC(CNc2cc(-c3ccccc3)nc3ccnn23)C1` (stereo not given) as the molecule, how does the IC50 read?
The IC50 was over 100 µM.

For `O=C(NCC1CCCOC1)c1ccc(-c2cccs2)[nH]c1=O` (stereo not given), which IC50 is on record?
Its IC50 is over 100 µM.

Which IC50 does the source give for `Cc1oc(C)c(C(=O)N2CCN(Cc3cscn3)CC2)c1C` here?
Its IC50 is over 100 µM.

How did the IC50 turn out when `Nc1cccc(-c2cccc3ccnn23)n1` was run?
The IC50 was over 100 µM.

Which IC50 does the source give for `Cn1ncc2c1CCCN(C(=O)C1CCCC1)C2` here?
Its IC50 is over 100 µM.

With `Cc1cnn(CC2CN(Cc3nc4ccccc4c(=O)[nH]3)CCO2)c1` (stereo not given) as the molecule, how does the IC50 read?
Its IC50 is over 100 µM.

Which IC50 does the source give for `Cc1cc(C)n(CC2CCCN2C(=O)c2ccnc(N(C)C)c2)n1` (stereo not given) here?
Its IC50 is over 100 µM.

`CNC(=O)c1cc2c(nc1NCC(C)C)CCN(S(=O)(=O)N(C)C)CC2` was tested. Which IC50 did it give?
The IC50 was over 100 µM.

`CCN(CC1CCOC1)C(=O)Nc1ccc(OC)nc1` (stereo not given) was tested. Which IC50 did it give?
Its IC50 is over 100 µM.

With `CC(c1cccnc1)N(C)Cc1cc2cc3c(cc2[nH]c1=O)OCO3` (stereo not given) as the molecule, how does the IC50 read?
The IC50 was over 100 µM.

For `COCC(C)N1CCc2onc(-c3ccc(C(F)(F)F)cc3)c2C1` (stereo not given), which IC50 is on record?
The IC50 was over 100 µM.

With `COCCNc1ncc(-c2cccc(OC)c2)c(-c2nccn2C)n1` as the molecule, how does the IC50 read?
Its IC50 is over 100 µM.

Which IC50 does the source give for `Cc1cc(NCC(=O)N(C)C)c(C(N)=O)cc1F` here?
Its IC50 is over 100 µM.

How did the IC50 turn out when `N#Cc1cccnc1N1CCCN(C(=O)CCn2cncn2)CC1` was run?
The IC50 was over 100 µM.

With `CCN(CC)c1nc(C)cc(C(=O)Nc2cccc(C(N)=O)c2)n1` as the molecule, how does the IC50 read?
Its IC50 is over 100 µM.

How did the IC50 turn out when `CCNc1ccnc(-c2ccnc3c2ccn3C)n1` was run?
Its IC50 is over 100 µM.

`CN(CC(=O)N1CCC(COc2ccccc2)CC1)c1cnccn1` was tested. Which IC50 did it give?
The IC50 was over 100 µM.

With `Cc1nc(-c2ccsc2)ccc1C(=O)NCCCN1CCOCC1` as the molecule, how does the IC50 read?
Its IC50 is over 100 µM.
